Experimental data published in the supplement of paper PMC10307832.

Key:
Test in all cases: relative viability (nuclei count vs DMSO), 5 days (fraction); higher = more cells survive
A549 = system: A549
Summary of the method: (§1)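 For relative viability, nuclei counts in treated wells were divided by those in vehicle wells. Lung cancer cell lines had been pin-tool dosed in 1536-well plates the day after seeding and cultured for 5 days, then fixed and stained in one step (final 0.05% Triton X-100, 1% formaldehyde, 1 ug/ml Hoechst) and imaged at 4×. Doses were one drug alone or a fixed anchor-drug dose plus five library-drug doses (not always all listed) in √10 steps, and values are duplicate-plate medians.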

Calu-6 = system: Calu-6
Summary of the method: as §1

EBC-1 = system: EBC-1
Summary of the method: as §1

IA-LM = system: IA-LM
Summary of the method: as §1

NCI-H1299 = system: NCI-H1299
Summary of the method: as §1

NCI-H1648 = system: NCI-H1648
Summary of the method: as §1

NCI-H1703 = system: NCI-H1703
Summary of the method: as §1

UMC-11 = system: UMC-11
Summary of the method: as §1

NCI-H1623 = system: NCI-H1623
Summary of the method: as §1

Structure (SMILES): COc1cc(N2CCC(C(N)=O)CC2)ccc1Nc1nc(N)c(Cl)c(Nc2ccccc2S(=O)(=O)C(C)C)n1 [HG-5-88-01] + O=C(c1cc(Cc2n[nH]c(=O)c3ccccc23)ccc1F)N1CCN(C(=O)C2CC2)CC1 [Olaparib] (partner 8 µM)
- relative viability (A549; first compound 0.04 µM): 0.357
- relative viability (A549; first compound 0.1265 µM): 0.419
- relative viability (A549; first compound 0.4 µM): 0.352
- relative viability (A549; first compound 1.265 µM): 0.273
- relative viability (A549; first compound 4 µM): 0.25
- relative viability (Calu-6; first compound 0.04 µM): 0.599
- relative viability (Calu-6; first compound 0.1265 µM): 0.579
- relative viability (Calu-6; first compound 0.4 µM): 0.579
- relative viability (Calu-6; first compound 1.265 µM): 0.537
- relative viability (Calu-6; first compound 4 µM): 0.46
- relative viability (EBC-1; first compound 0.04 µM): 0.712
- relative viability (EBC-1; first compound 0.1265 µM): 0.77
- relative viability (EBC-1; first compound 0.4 µM): 0.733
- relative viability (EBC-1; first compound 1.265 µM): 0.668
- relative viability (EBC-1; first compound 4 µM): 0.489
- relative viability (IA-LM; first compound 0.04 µM): 0.79
- relative viability (IA-LM; first compound 0.1265 µM): 0.839
- relative viability (IA-LM; first compound 0.4 µM): 0.87
- relative viability (IA-LM; first compound 1.265 µM): 0.699
- relative viability (IA-LM; first compound 4 µM): 0.649
- relative viability (NCI-H1299; first compound 0.04 µM): 0.956
- relative viability (NCI-H1299; first compound 0.1265 µM): 0.972
- relative viability (NCI-H1299; first compound 0.4 µM): 0.986
- relative viability (NCI-H1299; first compound 1.265 µM): 0.951
- relative viability (NCI-H1299; first compound 4 µM): 0.87
- relative viability (NCI-H1648; first compound 0.04 µM): 1.13
- relative viability (NCI-H1648; first compound 0.1265 µM): 0.63
- relative viability (NCI-H1648; first compound 0.4 µM): 0.457
- relative viability (NCI-H1648; first compound 1.265 µM): 0.773
- relative viability (NCI-H1648; first compound 4 µM): 0.462
- relative viability (NCI-H1703; first compound 0.04 µM): 0.341
- relative viability (NCI-H1703; first compound 0.1265 µM): 0.386
- relative viability (NCI-H1703; first compound 1.265 µM): 0.305
- relative viability (NCI-H1703; first compound 4 µM): 0.309
- relative viability (UMC-11; first compound 0.04 µM): 0.35
- relative viability (UMC-11; first compound 0.1265 µM): 0.399
- relative viability (UMC-11; first compound 0.4 µM): 0.45
- relative viability (UMC-11; first compound 1.265 µM): 0.428
- relative viability (UMC-11; first compound 4 µM): 0.274

Structure (SMILES): Clc1ccc(Nc2nnc(Cc3ccncc3)c3ccccc23)cc1 [Vatalanib] + CCNC(=O)c1noc(-c2cc(C(C)C)c(O)cc2O)c1-c1ccc(CN2CCOCC2)cc1 [Luminespib] (partner 0.01 µM)
- relative viability (NCI-H1623; first compound 0.04 µM): 0.428
- relative viability (NCI-H1623; first compound 0.1265 µM): 0.616
- relative viability (NCI-H1623; first compound 0.4 µM): 0.579
- relative viability (NCI-H1623; first compound 1.265 µM): 0.471
- relative viability (NCI-H1623; first compound 4 µM): 0.478
- relative viability (UMC-11; first compound 0.04 µM): 1.08
- relative viability (UMC-11; first compound 0.1265 µM): 1.11
- relative viability (UMC-11; first compound 0.4 µM): 0.996
- relative viability (UMC-11; first compound 1.265 µM): 1.02
- relative viability (UMC-11; first compound 4 µM): 1.01

Structure (SMILES): Clc1ccc(Nc2nnc(Cc3ccncc3)c3ccccc23)cc1 [Vatalanib] + COc1cccc2cc(-c3nc([C@H]4CC[C@H](C(=O)O)CC4)n4ncnc(N)c34)[nH]c12 [OSI-027] (partner 0.5 µM)
- relative viability (NCI-H1623; first compound 0.04 µM): 0.39
- relative viability (NCI-H1623; first compound 0.1265 µM): 0.618
- relative viability (NCI-H1623; first compound 0.4 µM): 0.446
- relative viability (NCI-H1623; first compound 1.265 µM): 0.418
- relative viability (NCI-H1623; first compound 4 µM): 0.386
- relative viability (NCI-H1648; first compound 0.04 µM): 0.258
- relative viability (NCI-H1648; first compound 0.1265 µM): 0.265
- relative viability (NCI-H1648; first compound 0.4 µM): 0.299
- relative viability (NCI-H1648; first compound 1.265 µM): 0.238
- relative viability (NCI-H1648; first compound 4 µM): 0.255
- relative viability (UMC-11; first compound 0.04 µM): 0.461
- relative viability (UMC-11; first compound 0.1265 µM): 0.487
- relative viability (UMC-11; first compound 0.4 µM): 0.44
- relative viability (UMC-11; first compound 1.265 µM): 0.433
- relative viability (UMC-11; first compound 4 µM): 0.518

Structure (SMILES): Clc1ccc(Nc2nnc(Cc3ccncc3)c3ccccc23)cc1 [Vatalanib] + Cc1cc(Nc2cc(N3CCN(C)CC3)nc(Sc3ccc(NC(=O)C4CC4)cc3)n2)n[nH]1 [Tozasertib] (partner 0.1 µM)
- relative viability (NCI-H1623; first compound 0.04 µM): 0.415
- relative viability (NCI-H1623; first compound 0.1265 µM): 0.435
- relative viability (NCI-H1623; first compound 0.4 µM): 0.455
- relative viability (NCI-H1623; first compound 1.265 µM): 0.374
- relative viability (NCI-H1623; first compound 4 µM): 0.393
- relative viability (NCI-H1648; first compound 0.04 µM): 0.581
- relative viability (NCI-H1648; first compound 0.1265 µM): 0.442
- relative viability (NCI-H1648; first compound 0.4 µM): 0.483
- relative viability (NCI-H1648; first compound 1.265 µM): 0.523
- relative viability (NCI-H1648; first compound 4 µM): 0.419
- relative viability (UMC-11; first compound 0.04 µM): 0.198
- relative viability (UMC-11; first compound 0.1265 µM): 0.206
- relative viability (UMC-11; first compound 0.4 µM): 0.147
- relative viability (UMC-11; first compound 1.265 µM): 0.214
- relative viability (UMC-11; first compound 4 µM): 0.205

Structure (SMILES): Clc1ccc(Nc2nnc(Cc3ccncc3)c3ccccc23)cc1 [Vatalanib] + Cc1nc(Nc2ncc(C(=O)Nc3c(C)cccc3Cl)s2)cc(N2CCN(CCO)CC2)n1 [Dasatinib] (partner 0.075 µM)
- relative viability (NCI-H1623; first compound 0.04 µM): 0.449
- relative viability (NCI-H1623; first compound 0.1265 µM): 0.619
- relative viability (NCI-H1623; first compound 0.4 µM): 0.545
- relative viability (NCI-H1623; first compound 1.265 µM): 0.533
- relative viability (NCI-H1623; first compound 4 µM): 0.435
- relative viability (UMC-11; first compound 0.04 µM): 0.422
- relative viability (UMC-11; first compound 0.1265 µM): 0.496
- relative viability (UMC-11; first compound 0.4 µM): 0.444
- relative viability (UMC-11; first compound 1.265 µM): 0.442
- relative viability (UMC-11; first compound 4 µM): 0.45

Structure (SMILES): Clc1ccc(Nc2nnc(Cc3ccncc3)c3ccccc23)cc1 [Vatalanib] + N=C(N)NC(=N)NCCc1ccccc1 [Phenformin] (partner 250 µM)
- relative viability (A549; first compound 0.04 µM): 0.206
- relative viability (A549; first compound 0.1265 µM): 0.131
- relative viability (A549; first compound 0.4 µM): 0.104
- relative viability (A549; first compound 1.265 µM): 0.143
- relative viability (A549; first compound 4 µM): 0.154
- relative viability (NCI-H1623; first compound 0.04 µM): 0.584
- relative viability (NCI-H1623; first compound 0.1265 µM): 0.577
- relative viability (NCI-H1623; first compound 0.4 µM): 0.514
- relative viability (NCI-H1623; first compound 1.265 µM): 0.581
- relative viability (NCI-H1623; first compound 4 µM): 0.524
- relative viability (UMC-11; first compound 0.04 µM): 0.311
- relative viability (UMC-11; first compound 0.1265 µM): 0.328
- relative viability (UMC-11; first compound 0.4 µM): 0.319
- relative viability (UMC-11; first compound 1.265 µM): 0.298
- relative viability (UMC-11; first compound 4 µM): 0.333

Structure (SMILES): Clc1ccc(Nc2nnc(Cc3ccncc3)c3ccccc23)cc1 [Vatalanib] + O=C(c1cc(Cc2n[nH]c(=O)c3ccccc23)ccc1F)N1CCN(C(=O)C2CC2)CC1 [Olaparib] (partner 8 µM)
- relative viability (A549; first compound 0.04 µM): 0.478
- relative viability (A549; first compound 0.1265 µM): 0.302
- relative viability (A549; first compound 0.4 µM): 0.532
- relative viability (A549; first compound 1.265 µM): 0.239
- relative viability (A549; first compound 4 µM): 0.3
- relative viability (Calu-6; first compound 0.1265 µM): 0.567
- relative viability (Calu-6; first compound 0.4 µM): 0.539
- relative viability (Calu-6; first compound 1.265 µM): 0.554
- relative viability (Calu-6; first compound 4 µM): 0.541
- relative viability (EBC-1; first compound 0.04 µM): 0.761
- relative viability (EBC-1; first compound 0.1265 µM): 0.59
- relative viability (EBC-1; first compound 0.4 µM): 0.817
- relative viability (EBC-1; first compound 1.265 µM): 0.663
- relative viability (EBC-1; first compound 4 µM): 0.654
- relative viability (IA-LM; first compound 0.04 µM): 0.89
- relative viability (IA-LM; first compound 0.1265 µM): 0.843
- relative viability (IA-LM; first compound 0.4 µM): 0.831
- relative viability (IA-LM; first compound 1.265 µM): 0.701
- relative viability (IA-LM; first compound 4 µM): 0.645
- relative viability (NCI-H1299; first compound 0.04 µM): 0.986
- relative viability (NCI-H1299; first compound 0.1265 µM): 0.924
- relative viability (NCI-H1299; first compound 0.4 µM): 1.04
- relative viability (NCI-H1299; first compound 1.265 µM): 0.923
- relative viability (NCI-H1299; first compound 4 µM): 0.965
- relative viability (NCI-H1648; first compound 0.04 µM): 0.943
- relative viability (NCI-H1648; first compound 0.1265 µM): 0.866
- relative viability (NCI-H1648; first compound 0.4 µM): 1.01
- relative viability (NCI-H1648; first compound 1.265 µM): 0.611
- relative viability (NCI-H1648; first compound 4 µM): 1.04
- relative viability (NCI-H1703; first compound 0.04 µM): 0.506
- relative viability (NCI-H1703; first compound 0.4 µM): 0.624
- relative viability (NCI-H1703; first compound 1.265 µM): 0.299
- relative viability (NCI-H1703; first compound 4 µM): 0.22
- relative viability (UMC-11; first compound 0.04 µM): 0.331
- relative viability (UMC-11; first compound 0.1265 µM): 0.39
- relative viability (UMC-11; first compound 0.4 µM): 0.318
- relative viability (UMC-11; first compound 1.265 µM): 0.468
- relative viability (UMC-11; first compound 4 µM): 0.297
